Data published in ChEMBL document CHEMBL1133482, “1-Phenyl-5-pyrazolyl ureas: potent and selective p38 kinase inhibitors” (Bioorg Med Chem Lett, 2000).
≈ marks a conversion by molar mass, not a printed value.

Experiment: Aqueous solubility at pH 7.5
Format: physicochemical

SMILES | solubility
CC(C)(C)c1cc(NC(=O)Nc2cccc(Cl)c2Cl)n(-c2ccc(S(C)(=O)=O)cc2)n1 | 79 µg/mL (≈ 164 µM)
CC(C)(C)c1cc(NC(=O)Nc2cccc(Cl)c2Cl)n(-c2ccc([N+](=O)[O-])cc2)n1 | 66 µg/mL (≈ 147 µM)
CC(C)(C)c1cc(NC(=O)Nc2cccc(Cl)c2Cl)n(-c2ccccc2)n1 | 24 µg/mL (≈ 59.5 µM)
CC(C)(C)c1cc(NC(=O)Nc2cccc(Cl)c2Cl)n(-c2cccc([N+](=O)[O-])c2)n1 | 18 µg/mL (≈ 40.2 µM)

The next lines start with the values.

solubility | SMILES
17 µg/mL (≈ 40.4 µM) | CC(C)(C)c1cc(NC(=O)Nc2cccc(Cl)c2Cl)n(-c2cccc(F)c2)n1
46 µg/mL (≈ 106 µM) | COc1cccc(-n2nc(C(C)(C)C)cc2NC(=O)Nc2cccc(Cl)c2Cl)c1
594 µg/mL (≈ 1420 µM) | CC(C)(C)c1cc(NC(=O)Nc2cccc(Cl)c2Cl)n(-c2cccc(N)c2)n1
